Measurements from patent publication US20260223850A1, “SUBSTITUTED PYRROLIDONE COMPOUND, PREPARATION METHOD THEREFOR, COMPOSITION AND APPLICATION THEREOF” (QINGDAO KINGAGROOT CHEMICAL COMPOUND CO., LTD., priority 2023, published 2026).

Legend:
[1] = system: Spodoptera frugiperda; test: Insecticidal activity assay, spraying method; type: in vivo; conditions: 2nd instar, spray, 48 h after drug application; for Spodoptera frugiperda/% (mortality): 500 ppm
Description: (§1) Spraying method: the technical material was weighed and dissolved with acetone, and the drug liquid was diluted with distilled water to different concentrations. The 2nd instar Spodoptera frugiperda test insects or the 3rd instar Mythimna separata test insects reared indoors with consistent physiological conditions were selected. Ten test insects were picked into each petri dish. Two 2 cm-long corn leaves were placed in the petri dish and sprayed using a spray tower. Each dosage was repeated 3 times, with acetone of the corresponding concentration as a control. After drug application, the insects were transferred to and reared in a condition where the temperature was 25° C. and the humidity was 60%. The results were investigated 48 h after drug application and the death number per treatment was collected, respectively. The mortality was calculated in accordance with the following equation: Mortality (%)=(Number of dead insects/Number of test insects)×100.

[2] = system: Mythimna separata; test: Insecticidal activity assay, spraying method; type: in vivo; conditions: 3rd instar, spray, 48 h after drug application
Description: as §1

[3] = system: Huaidao (rice cultivar); test: Seedling stage sealing experiment for water-seeding (crop safety); type: in vivo; conditions: 120 g a.i./ha, 15 days, fresh weight control rate; for Huaidao (rice cultivar) plant damage level: seedling stage sealing
Procedure, shortened: (§2)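 Water-seeding seedling stage test: broadcast seeds, cover with soil, keep bowls moist in a water box; spray compound (acetone, diluted in water) at 120, 60, 30, 15 g a.i./ha; culture 15 d in greenhouse; grade 0–9 by fresh-weight growth control; mean of 3.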

[4] = system: Echinochloa crusgalli; test: Seedling stage sealing experiment for water-seeding; type: in vivo; conditions: 120 g a.i./ha, 15 days, fresh weight control rate
[5] = system: Rice sheath blight; test: Fungicidal activity assay, petri dish method; type: cell-based; conditions: 25° C., after 4 days; for Rice sheath blight/% (mycelium growth inhibition rate): 400 ppm
Description: (§3) Petri dish method: The drug agent was dissolved with acetone, diluted with sterile water, and set to different levels of mass concentrations according to its activity. Under aseptic operation conditions, the pre-melted sterilized medium was quantitatively added into sterilized flasks according to the test treatment. The drug solutions were quantitatively aspirated in order from low to high concentrations, added into the above-mentioned flasks, and shaken well, respectively. Next, equal amounts of the solution were poured into 3 petri dishes with a diameter of 6 cm to prepare drug-containing plates with corresponding concentrations. In the test, a treatment without drugs was set up as the blank control and each treatment was repeated 3 times. A fungus cake was cut out from the edge of the colony of the cultured pathogens using a sterile hole puncher with a diameter of 3 mm under sterile conditions. The fungus cake was inoculated into the center of a drug-containing plate using an inoculator, with the mycelia facing up, covered with a plate cover, and cultured in an incubator at 25° C. The growth of pathogen mycelia was investigated according to the fungal growth in the blank control petri dishes after 4 days. The diameters of the colonies were measured with a caliper in millimeters (mm). Each colony was vertically measured for diameters once each by the cross method and then averaged. Based on the investigation results, the mycelium growth inhibition rate of each treatment concentration on the test target fungi was calculated in accordance with Equation (1) and (2). The unit was percentage (%).
(§4) [formula] • wherein: D—Increase of colony diameter; D1—Diameter of colony; D2—Diameter of fungus cake.
(§5) [formula] • wherein: I—Mycelium growth inhibition rate; D0—Increase of colony diameter of blank control; Dt—Increase of colony diameter of drug treatment.

[6] = system: Apple ring rot; test: Fungicidal activity assay, petri dish method; type: cell-based; conditions: 25° C., after 4 days; for Apple ring rot/% (mycelium growth inhibition rate): 400 ppm
Description: as §3, §4, §5

[7] = system: Tomato gray mold; test: Fungicidal activity assay, petri dish method; type: cell-based; conditions: 25° C., after 4 days
Description: as §3, §4, §5

[8] = system: Echinochloa phyllopogon; test: Seedling stage sealing experiment for water-seeding; type: in vivo; conditions: 120 g a.i./ha, 15 days, fresh weight control rate
Procedure, shortened: as §2

[9] = system: Leptochloa chinensis; test: as above; type: in vivo; conditions: 120 g a.i./ha, 15 days, fresh weight control rate
Procedure, shortened: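 Seeds sown in soil-filled bowls kept moist in water-filled boxes; compound in acetone diluted with water and spray-applied at 120, 60, 30 and 15 g a.i./ha, triplicate. After 15 days in greenhouse, fresh-weight growth control scored on a 0–9 scale (9 = dead, 0 = no effect), averaged.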

[10] = system: Digitaria sanguinalis; test: as above; type: in vivo; conditions: 120 g a.i./ha, seedling stage sealing, 15 days, fresh weight control rate
Procedure, shortened: as §2

[11] = system: weeds; test: Activity assay of compositions, soil sealing treatment (S); type: in vivo; conditions: treatment S, A 15 g a.i./ha
Description: (§6) The required active ingredient B was purchased from a reagent company or a technical material manufacturer or synthesized by a conventional method. The technical materials were all dissolved with acetone solvents and diluted with aqueous solution of 0.1% Tween® 80 emulsifier, which should be used immediately after dilution.
The test soil was quantitatively filled to ¾ of a pot, and then watered from the bottom of the pot to completely wet the soil to saturation. The seeds of the test weeds were accelerated to Just germinate, and then evenly and quantitatively broadcasted on the soil surface, covered with 0.5-1 cm soil according to the sizes of the seeds, and ready for use 72 hours after broadcasting.
Each treatment was repeated 4 times. Four pots were treated each time with 20 weed seeds per pot.
The seeds were planted in a 20 cm*30 cm square box. Water was added to 2-3 cm deep after sowing, then injected with the drug agent using a syringe, stirred evenly, and left to stand for 2 days to dry naturally. The soil was kept moist afterwards.
(§7) A method for investigating absolute numbers was employed. The whole seedlings of the survival weeds were cut along the soil surface with a blade, and the fresh weight of the weeds was weighed by an analytical balance. For dead weeds, the fresh weight thereof was considered zero.
(§8) The investigation was performed 21 days after the treatment for once in total.
(§9) The theoretical fresh weight inhibition rate of a mixed combination of each treatment was calculated by the Gowing method (E0═X+Y−X*Y/100), then compared with the measured inhibition rate (E) to evaluate the type of the combined action of the combination of the two on weeds. The combined action was a synergistic effect when E−E0 >10%; an antagonistic effect when E−E0<−10%; an additional effect when −10%≤E−E0≤10%. An optimal ratio was determined according to factors such as actual control effects, characteristics of herbicides, balance of the formulation, etc.

[12] = system: weeds; test: Activity assay of compositions, post-emergence spray treatment of stems and leaves (F); type: in vivo; conditions: treatment F, A 30 g a.i./ha, 21 days after treatment
Description: as §6
Weeds were cultivated by the pot culture method. […] Weed seeds with plump and uniform grains were selected, soaked in lukewarm water at 25° C. for 6 hours, and accelerated to germinate in a 28° C. biochemical incubator (in darkness). The weed seeds that had just germinated were evenly placed on the surface of the soil and then covered with 0.5-1 cm soil according to the sizes of seeds.
The weeds were cultured in a controllable sunlight greenhouse at 20-30° C., in natural light and with relative humidity of 57%-72%.
Each treatment was repeated 4 times. Three pots with 20 weed seeds sowed per pot were treated each time.
The drug was applied once in total in the experiment. When at 1.5-2 leaf stage, the weeds were thinned out to maintain 10 strains per pot. Thirty strains were kept in each treatment and then continued to be cultured until the 3-4 leaf stage for further treatment.
The well-cultured test materials were evenly placed on a 0.5 m^2 platform and foliage-sprayed by the 3WP-2000-type walking spray tower at a dosage of […] and a spray pressure of 0.3 MPa. After all the drug solution was sprayed, the air valve was closed. And 30 seconds later, the door of the spray tower was opened, and the nutritional bowl was taken out. Next, the air valve was opened, and the spray tube was cleaned by spraying 50 mL of water. The test materials were transferred to and routinely cultured in a greenhouse after the treatment.
as §7, §8
as §9, with “etc. In the formula, X represents the fresh weight inhibition rate of the active ingredient A in a dosage of P; Y represents the fresh weight inhibition rate of the active ingredient B in a dosage of Q. The statistical results are shown in Table 6.” for “etc.”

[13] = spray, seedling stage sealing for water-seeding

With `Cc1cc([C@H]2CN(C)C(=O)[C@@H]2C(=O)Nc2cnn(C)c2Cl)nn1C(F)F` [340′] the mortality at 500 ppm ([1]; Spodoptera frugiperda) was 87% and the mortality at 500 ppm ([2]; Mythimna separata, 500 ppm) was 100%.

`Cc1cc(C)cc([C@H]2CN(C)C(=O)[C@@H]2C(=O)Nc2cnn(-c3ccccc3)c2Cl)c1` [421′] was tested, and the “Huaidao (rice cultivar) plant damage level” value [3] was 0, the “Spodoptera frugiperda/% (mortality)” value [1] was 65% and the “Mythimna separata/% (mortality)” value ([2]; 500 ppm) was 75%. The “Echinochloa crusgalli activity level (growth control rate)” value (“Echinochloa crusgalli activity level” for short) ([4]; seedling stage sealing) was 9.

In the case of `CN1C[C@H](c2ccc3c(c2)OC(F)(F)O3)[C@@H](C(=O)Nc2cnn(C)c2Cl)C1=O` [357′], the “Rice sheath blight/% (mycelium growth inhibition rate)” value [5] is reported as 50%, the “Apple ring rot/% (mycelium growth inhibition rate)” value [6] is reported as 65% and the “Tomato gray mold/% (mycelium growth inhibition rate)” value ([7]; 400 ppm) is reported as 80%.

`C=CCn1ncc(NC(=O)[C@H]2C(=O)N(C)C[C@@H]2c2cc(C)cc(C)c2)c1Cl` [270′] was tested, and the “Huaidao (rice cultivar) plant damage level” value [3] was 0, the “Spodoptera frugiperda/% (mortality)” value [1] was 55% and the “Mythimna separata/% (mortality)” value ([2]; 500 ppm) was 75%. The “Rice sheath blight/% (mycelium growth inhibition rate)” value [5] was 61%, the “Tomato gray mold/% (mycelium growth inhibition rate)” value ([7]; 400 ppm) was 51% and the “Echinochloa phyllopogon activity level (growth control rate)” value (from here on “Echinochloa phyllopogon activity level”) ([8]; seedling stage sealing) was 6 (Level 6: growth control rate greater than or equal to 70% and less than 80%).

In the case of `Cc1cc(C)cc([C@H]2CN(C)C(=O)[C@@H]2C(=O)Nc2cnn(C(=O)OC(C)(C)C)c2Cl)c1` [491′], the “Spodoptera frugiperda/% (mortality)” value [1] is reported as 60% and the “Mythimna separata/% (mortality)” value ([2]; 500 ppm) is reported as 70%.

`Cc1ccc([C@H]2CN(C)C(=O)[C@@H]2C(=O)Nc2cnn(C)c2Cl)o1` [522′] was tested, and the “Spodoptera frugiperda/% (mortality)” value [1] was 60% and the “Mythimna separata/% (mortality)” value ([2]; 500 ppm) was 70%.

In the case of `CN1C[C@H](c2ccc(C3CC3)cc2)[C@@H](C(=O)Nc2cnn(C)c2Cl)C1=O` [259′], the “Huaidao (rice cultivar) plant damage level” value [3] is reported as 0, the “Rice sheath blight/% (mycelium growth inhibition rate)” value [5] is reported as 59% and the “Apple ring rot/% (mycelium growth inhibition rate)” value [6] is reported as 51%. The “Tomato gray mold/% (mycelium growth inhibition rate)” value ([7]; 400 ppm) was 80% and the “Echinochloa crusgalli activity level” value ([4]; seedling stage sealing) was 5 (Level 5: growth control rate greater than or equal to 50% and less than 70%).

With `Cc1cc(Cl)cc([C@H]2CN(C)C(=O)[C@@H]2C(=O)Nc2cnn(C)c2Cl)c1` [504′] the “Huaidao (rice cultivar) plant damage level (growth control rate)” value [3, 13] was 0, the “Rice sheath blight/% (mycelium growth inhibition rate)” value [5] was 83% and the “Apple ring rot/% (mycelium growth inhibition rate)” value [6] was 80%. For the same compound, the “Echinochloa crusgalli activity level” value [4, 13] was 9 and the “Echinochloa phyllopogon activity level” value [8, 13] was 9.

In the case of `Cc1cc(C)cc([C@H]2CN(C)C(=O)[C@@H]2C(=O)Nc2cnn(C)c2C2CC2)c1` [277′], the “Leptochloa chinensis activity level (growth control rate)” value [9] is reported as 9, the “Mythimna separata/% (mortality)” value ([2]; 100 ppm) is reported as 95% and the “Echinochloa crusgalli activity level” value ([4]; seedling stage sealing) is reported as 9. The “Digitaria sanguinalis activity level (growth control rate)” value [10] was 6 (Level 6: growth control rate greater than or equal to 70% and less than 80%).

In the case of `Cc1cc(C)cc([C@H]2CN(C)C(=O)[C@@H]2C(=O)Nc2cnn(C)c2Cl)c1` [117′], the “Leptochloa chinensis activity level (growth control rate)” value [9] is reported as 9, the inhibition at 400 ppm ([5]; 96 h, read-out: Rice sheath blight/% (mycelium growth inhibition rate)) is reported as 66% and the inhibition at 400 ppm ([6]; 96 h, read-out: Apple ring rot/% (mycelium growth inhibition rate)) is reported as 55%. For the same compound, the “Control effect of A applied alone in a corresponding dose (%)” value (“Control effect of A applied alone … (%)” for short) ([11]; Alisma plantago-aquatica, 21 days after treatment) was 29.6%, the “Control effect of A applied alone … (%)” value ([11]; Paspalum distichum, 21 days after treatment) was 45.7% and the “Control effect of A applied alone … (%)” value ([11]; Rotala indica, fresh weight inhibition 21 days after treatment) was 37.6%. For the same compound, the “Control effect of A applied alone … (%)” value ([12]; Alisma plantago-aquatica) was 24.8%, the “Control effect of A applied alone … (%)” value ([12]; Paspalum distichum) was 42.6% and the “Echinochloa crusgalli activity level” value ([4]; seedling stage sealing) was 9. For the same compound, the “Echinochloa phyllopogon activity level” value ([8]; seedling stage sealing) was 7 (Level 7: growth control rate greater than or equal to 80% and less than 90%).

`C#CCn1ncc(NC(=O)[C@H]2C(=O)N(C)C[C@@H]2c2cc(C)cc(C)c2)c1Cl` [420′] was tested, and the “Huaidao (rice cultivar) plant damage level” value [3] was 0, the “Spodoptera frugiperda/% (mortality)” value [1] was 75% and the “Mythimna separata/% (mortality)” value ([2]; 500 ppm) was 90%. For the same compound, the “Echinochloa crusgalli activity level” value ([4]; seedling stage sealing) was 9 and the “Echinochloa phyllopogon activity level” value ([8]; seedling stage sealing) was 9.

With `CCn1ncc(NC(=O)[C@H]2C(=O)N(C)C[C@@H]2c2cc(C)cc(C)c2)c1Cl` [418′] the “Tomato gray mold/% (mycelium growth inhibition rate)” value ([7]; 500 ppm) was 96%, the “Echinochloa crusgalli activity level” value ([4]; seedling stage sealing) was 9 and the “Echinochloa phyllopogon activity level” value ([8]; seedling stage sealing) was 9.

In the case of `CN1C[C@H](c2cc3ccccc3o2)[C@@H](C(=O)Nc2cnn(C)c2Cl)C1=O` [356′], the “Apple ring rot/% (mycelium growth inhibition rate)” value [6] is reported as 83%, the “Tomato gray mold/% (mycelium growth inhibition rate)” value ([7]; 400 ppm) is reported as 57% and the “Echinochloa crusgalli activity level” value ([4]; seedling stage sealing) is reported as 5 (Level 5: growth control rate greater than or equal to 50% and less than 70%).

With `Cc1cc(C)cc([C@H]2CN(C)C(=O)[C@@H]2C(=O)Nc2cnn(C)c2C=O)c1` [500′] the “Spodoptera frugiperda/% (mortality)” value [1] was 60% and the “Mythimna separata/% (mortality)” value ([2]; 500 ppm) was 70%.
